The target of the assay is T1, Recombinant human FLT3 (Homo sapiens, UniProt P36888).
T1 construct: His6 (C)
T1 sequence (P36888 27-993): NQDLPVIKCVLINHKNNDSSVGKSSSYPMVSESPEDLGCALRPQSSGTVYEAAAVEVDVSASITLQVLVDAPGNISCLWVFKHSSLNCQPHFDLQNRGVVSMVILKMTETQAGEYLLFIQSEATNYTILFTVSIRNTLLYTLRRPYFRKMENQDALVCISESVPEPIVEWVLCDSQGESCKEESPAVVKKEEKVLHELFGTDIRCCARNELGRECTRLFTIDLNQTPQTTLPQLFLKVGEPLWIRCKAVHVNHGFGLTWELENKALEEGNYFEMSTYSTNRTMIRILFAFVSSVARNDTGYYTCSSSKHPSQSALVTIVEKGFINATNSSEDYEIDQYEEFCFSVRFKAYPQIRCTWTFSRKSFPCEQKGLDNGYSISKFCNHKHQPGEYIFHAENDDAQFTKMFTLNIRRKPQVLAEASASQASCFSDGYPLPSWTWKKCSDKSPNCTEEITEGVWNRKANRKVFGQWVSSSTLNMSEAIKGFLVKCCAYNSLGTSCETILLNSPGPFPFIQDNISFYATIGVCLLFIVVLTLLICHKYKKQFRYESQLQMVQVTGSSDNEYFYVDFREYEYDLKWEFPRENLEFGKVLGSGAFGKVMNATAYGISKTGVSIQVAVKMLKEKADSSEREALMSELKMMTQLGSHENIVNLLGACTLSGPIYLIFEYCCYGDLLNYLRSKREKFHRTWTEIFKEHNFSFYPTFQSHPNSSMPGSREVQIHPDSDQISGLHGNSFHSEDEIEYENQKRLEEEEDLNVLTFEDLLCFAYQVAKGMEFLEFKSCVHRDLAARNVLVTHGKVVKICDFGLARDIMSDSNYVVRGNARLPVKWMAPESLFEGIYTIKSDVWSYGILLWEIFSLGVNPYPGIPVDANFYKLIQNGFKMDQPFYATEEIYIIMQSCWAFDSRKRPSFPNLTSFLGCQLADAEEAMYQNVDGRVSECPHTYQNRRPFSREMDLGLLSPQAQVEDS
As to the kind of experiment: Flt3 kinase inhibitory assay (radioisotope filtration binding, 33P-ATP). In kind it is biochemical. The settings on record: read-out: Flt3 inhibition IC50. On the procedure: The assay is performed using traditional radioisotope filtration binding.
A base reaction buffer is prepared consisting of 20 mM Hepes (pH 7.5), 10 mM MgCl2, 1 mM EGTA, 0.02% Brij35, 0.02 mg/ml BSA, 0.1 mM […], 2 mM DTT, 1% DMSO. The peptide substrate abltide [[…]] is added to the base reaction buffer to yield a final concentration of 5 μM. Additional cofactors (1.5 mM CaCl2, 16 ug/ml Calmodulin, and 2 mM MnCl2) are added to the buffer/substrate solution. Recombinant human FLT3 (baculovirus expression system using a C-terminal His6-tag) is added to the solution and gently mixed. Test compounds are dissolved in DMSO and added to the buffer/kinase solution to yield a final concentration of 5 μM. […] The reaction is initiated by the addition of ^33P-ATP (specific activity […]) into the reaction mixture to a final concentration of 10 μM. The kinase reaction was incubated for 120 minutes at room temperature. The reactions are spotted onto P81 ion exchange paper (Whatman #3698-915) and the filter papers are extensively washed in 0.75% Phosphoric acid and beta emissions are measured.

Each structure is given as a SMILES string.

For orientation: IC50 means the point on the concentration scale where inhibition reaches its midpoint.

`c1cc(-c2ccc3nc(Nc4cc(CN5CCCC5)ccn4)cn3n2)ccn1` [Compound 102]: the IC50 turned out to be 0.25 nM. The value for `c1cc(-c2cn3cc(Nc4cc(CN5CCCC5)ccn4)nc3cn2)ccn1` [Compound 101] was 0.11 nM.
